Read-outs that look alike come from different tables or passages of the source.
Columns and labels:
Type in all cases: in vivo, BALB/c nude mice
[1] = Example 6 pharmacokinetics assay for PKPD study (plasma, tumor, liver); settings: mouse, po, 10 mg/kg, single dose
Experimental: For the pharmacokinetic/pharmacodynamic (PKPD) study, compounds were tested in the A375 human melanoma xenografts. Known BRAF inhibitors encorafenib, and dabrafenib were used as positive controls. Encorafenib, dabrafenib, Compound 83, Compound 93, Compound 70, and Compound 54 were administered to BALB/c nude mice bearing A375 tumors on PG-D1 and dosed orally (PO) once. Encorafenib was dosed at 35 mg/kg. Dabrafenib was dosed at 100 mg/kg. Compound 83, Compound 93, Compound 70, and Compound 54 were dosed at 10 mg/kg. The plasma and tumor samples were collected at 1, 6, 12 and 24 hours, and liver samples were collected at 6 hours and 12 hours post the single dose. This study was non-GLP study.
(§1) The plasma samples were collected at predetermined time points for PK analysis. The mice were euthanized at predetermined time points post the treatment. The blood samples were collected into the 1.5 mL Eppendorf tubes containing 15 μL of 0.5 M EDTA-K2. And then the anticoagulant blood samples were centrifuged at 2,500 g at 4° C. for 15 minutes. The plasma samples were separated into 2 aliquots. The 1st was used for PK analysis, and the 2nd served as backup. The samples were stored at −80° C. before bioanalysis.
The tumor samples were collected at predetermined time points for PK and WB analysis (B-RAF and p-ERK). The tumor was dissected out and split into 3 parts. The 1st part was used for PK analysis, the 2nd part was used for WB analysis and the last one served as backup for study. The samples were transferred into pre-labeled tubes and quickly froze in liquid nitrogen within 2 minutes after dissection. The samples were stored at −80° C. before bioanalysis.
(§2) Liver samples were collected at predetermined time points for PK analysis. The left lobe of the liver was dissected out and split into 2 parts. The 1st part was used for PK analysis and the 2nd part served as the backup for the study. The samples were transferred into pre-labeled tubes and quickly froze in liquid nitrogen within 2 minutes after dissection. The samples were stored at −80° C. before bioanalysis.
For PKPD study, the harvested plasma, tumor and liver were processed for pharmacokinetics analysis by LC/MS/MS with a concentration range of 0.5-1000 ng/mL for Encorafenib and Dabrafenib in plasma, 0.05-100 ng/mL for Encorafenib and Dabrafenib in tumor, 0.2-200 ng/mL for Encorafenib and Dabrafenib in liver, 2.0-2000 ng/mL for compound 93, compound 83, compound 54 and compound 70 in liver, 50.0-50000 ng/mL for compound 83 and compound 70 in plasma, 0.5-1000 ng/mL for compound 83 and compound 70 in tumor, 1.0-2000 ng/mL for compound 93 in plasma, 10.0-20000 ng/mL for compound 54 in plasma, 0.5-500 ng/mL for compound 93 and compound 54 in tumor.

[2] = Example 6 pharmacokinetics assay for efficacy study (plasma, liver); settings: mouse, po, 10 mg/kg, p.o., BID × 21 days
Experimental: For efficacy study, compounds were tested in the A375 human melanoma xenografts. Known BRAF inhibitors encorafenib, and dabrafenib were used as positive controls. Encorafenib and dabrafenib were administered to BALB/c nude mice bearing A375 tumors on PG-D1 and dosed PO daily (QD) for 3 weeks. Encorafenib was dosed at 35 mg/kg. Dabrafenib was dosed at 100 mg/kg. Compound 83, Compound 93, Compound 70, and Compound 54 were administered to BALB/c nude mice bearing A375 tumors on PG-DO and dosed PO twice per day (BID) for 3 weeks. Compound 83, Compound 93, Compound 70, and Compound 54 were dosed at 10 mg/kg.
as §1, §2
For efficacy study, the harvested plasma and liver were processed for pharmacokinetics analysis by LC/MS/MS with a concentration range of 2.00-2000 ng/mL for Encorafenib and Dabrafenib in plasma, 0.20-200 ng/mL for Encorafenib and Dabrafenib in liver, 50.0-50000 ng/mL for compound 83 and compound 70 in plasma, 20.0-20000 ng/mL for Compound 93 and Compound 54 in plasma, 5.00-5000 ng/mL for compound 93, compound 83, compound 70 and compound 54 in liver.

[3] = system: A375 human melanoma xenografts; test: Example 8 efficacy study in A375 human melanoma xenografts (tumor volume, T/C, TGI); settings: 10 mg/kg, p.o.
Experimental: For efficacy study, agents were tested in the A375 human melanoma xenografts model. Compound 8, Compound 26, and Compound 38 were administered to BALB/c nude mice bearing A375 xenografts from day 0 and dosed p.o. twice per day (BID). Compound 8 and Compound 26 were dosed at 10 mg/kg for 21 days. Compound 38 was dosed at 10 mg/kg for 10 days. The known BRAF inhibitor encorafenib was used as a positive control. encorafenib was administered from day 1 and dosed p.o. daily (QD) for 21 days and dosed at 35 mg/kg.
The A375 tumor cells were maintained in vitro in DMEM medium supplemented with […] and 1% Penicillin-Streptomycin at 37° C. in an atmosphere of 5% CO2 in air. The tumor cells were routinely subcultured twice weekly. The cells growing in an exponential growth phase were harvested and counted for tumor inoculation.
Each mouse was inoculated subcutaneously at the right flank with A375 cells (5×10^6) in 0.2 mL of PBS supplemented with Matrigel (PBS:Matrigel=1:1) for tumor development. Animals were grouped for treatment 16 days after tumor inoculation when the average tumor volume reached 234 mm^3 for efficacy study and 382 mm^3 for PKPD study. The test articles administration and the animal numbers in each group are shown in the above experimental tables.
Prior to the onset of drug treatment, mice were measured for tumor size in two dimensions using a caliper, and the tumor volume (mm^3) was calculated using formula V=0.5 a×b^2 where a and b are the long and short diameters of the tumor in mm, respectively. Mice were randomized into different treatment groups based on the tumor volume.
The major endpoint was to see if the tumor growth could be delayed or mice could be cured. The tumor size was then used for calculations of T/C value. The T/C value (in percent) is an indication of antitumor effectiveness; T and C are the mean volumes of the treated and control groups, respectively on specified day.
TGI was calculated for each group using the formula: TGI (%)=[1−(Ti−T0)/(Ci−C0)]×100; Ti is the average tumor volume of a treatment group on a given day, T0 is the average tumor volume of the treatment group on the day of treatment start, Ci is the average tumor volume of the vehicle control group on the same day with Ti, and C0 is the average tumor volume of the vehicle group on the day of treatment start.

[4] = liver, read-out: Concentration in Liver (mean ± SEM)
[5] = plasma, read-out: Concentration in Plasma (mean ± SEM)
[6] = tumor, read-out: Concentration in Tumor (mean ± SEM)

## CCN(C)S(=O)(=O)Nc1ccc(F)c(Oc2ccc3ncc([C@@H]4COC5(CCN(C6CCC(c7cc8c(cc7F)c(N7CCC(=O)NC7=O)nn8C)CC6)CC5)C4)nc3c2)c1C#N (single isomer, unassigned) [Compound 54]
[1]; [4]
  concentration at 6 h: 4470 ± 501 ng/g
  concentration at 12 h: 650 ± 84.2 ng/g
[1]; [5]
  concentration at 1 h: 7740 ± 1180 ng/mL
  concentration at 6 h: 3410 ± 703 ng/mL
  concentration at 12 h: 605 ± 124 ng/mL
  concentration at 24 h: 54 ± 9.5 ng/mL
[1]; [6]
  concentration at 1 h: 513 ± 28.8 ng/g
  concentration at 6 h: 931 ± 147 ng/g
  concentration at 12 h: 477 ± 125 ng/g
  concentration at 24 h: 29.8 ± 2.9 ng/g
[2]; [4]
  concentration at 6 h: 4240 ± 955 ng/g
[2]; [5]
  concentration at 6 h: 3990 ± 634 ng/mL

## CCN(C)S(=O)(=O)Nc1ccc(F)c(Oc2ccc3ncn([C@H]4COC5(CCC(N6CCC(c7cc8c(cc7F)c(N7CCC(=O)NC7=O)nn8C)C(F)(F)C6)CC5)C4)c(=O)c3c2)c1C#N (single isomer, unassigned) [Compound 38]
[3]; BID × 10 days, PG-D9
  T/C: 4.30%
  TGI: 134.38%
  Tumor Size on PG-D9 (mean ± SEM): 35 ± 3 mm^3
[3]; BID × 10 days, day 0
  Tumor Volume (mean ± SEM): 234 ± 7 mm^3
[3]; BID × 10 days, day 3
  Tumor Volume (mean ± SEM): 134 ± 7 mm^3
[3]; BID × 10 days, day 6
  Tumor Volume (mean ± SEM): 67 ± 7 mm^3
[3]; BID × 10 days, day 9
  Tumor Volume (mean ± SEM): 35 ± 3^b mm^3

## Cn1nc(N2CCC(=O)NC2=O)c2cc(F)c(C3CCC(N4CCC5(CC4)CC(n4cnc6ccc(Oc7c(F)ccc(NS(=O)(=O)C8CCCC8)c7C#N)cc6c4=O)C5)CC3)cc21 (single isomer, unassigned) [Compound 93, N-[2-cyano-3-[3-[7-[4-[3-(2,4-dioxohexahydropyrimidin-1-yl)-5-fluoro-1-methyl-indazol-6-yl]cyclohexyl]-7-azaspiro[3.5]nonan-2-yl]-4-oxo-quinazolin-6-yl]oxy-4-fluoro-phenyl]cyclopentanesulfonamide]
[1]; [4]
  concentration at 6 h: 460 ± 32.7 ng/g
  concentration at 12 h: 117 ± 30.2 ng/g
[1]; [5]
  concentration at 1 h: 2450 ± 799 ng/mL
  concentration at 6 h: 548 ± 28.3 ng/mL
  concentration at 12 h: 114 ± 25.6 ng/mL
  concentration at 24 h: 2.85 ± 0.408 ng/mL
[1]; [6]
  concentration at 1 h: 232 ± 75.6 ng/g
  concentration at 6 h: 129 ± 13.6 ng/g
  concentration at 12 h: 50.6 ± 14.1 ng/g
  concentration at 24 h: 59.5 ng/g
[2]; [4]
  concentration at 6 h: 652 ± 180 ng/g
[2]; [5]
  concentration at 6 h: 1100 ± 389 ng/mL

## CCN(C)S(=O)(=O)Nc1ccc(F)c(Oc2ccc3ncn([C@H]4COC5(CCN(C6CC7(C6)CN(c6cc8c(cc6F)c(N6CCC(=O)NC6=O)nn8C)C7)CC5)C4)c(=O)c3c2)c1C#N [Compound 26, (3R)-3-[6-[2-cyano-3-[[ethyl(methyl)sulfamoyl]amino]-6-fluoro-phenoxy]-4-oxo-quinazolin-3-yl]-8-[2-[3-(2,4-dioxohexahydropyrimidin-1-yl)-5-fluoro-1-methyl-indazol-6-yl]-2-azaspiro[3.3]heptan-6-yl]-1-oxa-8-azaspiro[4.5]decane]
[3]; BID × 21 days, PG-D21
  T/C: 0.97%
  TGI: 114.89%
  Tumor Size on PG-D21 (Mean ± SEM): 16 ± 2 mm^3
[3]; BID × 21 days, day 0
  Tumor Volume (mean ± SEM): 234 ± 7 mm^3
[3]; BID × 21 days, day 3
  Tumor Volume (mean ± SEM): 148 ± 10 mm^3
[3]; BID × 21 days, day 6
  Tumor Volume (mean ± SEM): 57 ± 4 mm^3
[3]; BID × 21 days, day 9
  Tumor Volume (mean ± SEM): 33 ± 3 mm^3
[3]; BID × 21 days, day 13
  Tumor Volume (mean ± SEM): 21 ± 2 mm^3
[3]; BID × 21 days, day 17
  Tumor Volume (mean ± SEM): 18 ± 1 mm^3
[3]; BID × 21 days, day 21
  Tumor Volume (mean ± SEM): 16 ± 2 mm^3

## CCN(C)S(=O)(=O)Nc1ccc(F)c(Oc2ccc3ncn(C4CC5(CCN(C6CCC(c7cc8c(cc7F)c(N7CCC(=O)NC7=O)nn8C)CC6)CC5)C4)c(=O)c3c2)c1C#N (single isomer, unassigned) [Compound 8, 6-[2-cyano-3-[[ethyl(methyl)sulfamoyl]amino]-6-fluoro-phenoxy]-3-[7-[4-[3-(2,4-dioxohexahydropyrimidin-1-yl)-5-fluoro-1-methyl-indazol-6-yl]cyclohexyl]-7-azaspiro[3.5]nonan-2-yl]-4-oxo-quinazoline]
[3]; BID × 21 days, PG-D21
  T/C: 1.29%
  TGI: 114.48%
  Tumor Size on PG-D21 (Mean ± SEM): 22 ± 3 mm^3
[3]; BID × 21 days, day 0
  Tumor Volume (mean ± SEM): 234 ± 7 mm^3
[3]; BID × 21 days, day 3
  Tumor Volume (mean ± SEM): 185 ± 6 mm^3
[3]; BID × 21 days, day 6
  Tumor Volume (mean ± SEM): 105 ± 9 mm^3
[3]; BID × 21 days, day 9
  Tumor Volume (mean ± SEM): 57 ± 4 mm^3
[3]; BID × 21 days, day 13
  Tumor Volume (mean ± SEM): 32 ± 4 mm^3
[3]; BID × 21 days, day 17
  Tumor Volume (mean ± SEM): 28 ± 3 mm^3
[3]; BID × 21 days, day 21
  Tumor Volume (mean ± SEM): 22 ± 3 mm^3

— patent US20260297060A1, “COMPOUNDS FOR THE DEGRADATION OF MUTANT BRAF” (C4 THERAPEUTICS, INC., priority 2023, published 2026)
